Experimental data published in US20190211020A1 (Agency for Science, Technology and Research, priority 2012, published 2019).
Where a name gives a salt, the structure may show the parent alone.

What follows are compounds tested on eIF4E Ser209 phosphorylation in Hela cells (assay: MNK cell-based assay (AlphaScreen SureFire, eIF4E Ser209 phosphorylation)). Conditions: Homo sapiens, HeLa, 2 h, read-out: IC50 Hela.
Description: It has been reported that Ser209 of eIF4E is solely phosphorylated by the MNK enzymes. The ability of compounds to inhibit this process in Hela cells was investigated using the AlphaScreen SureFire® assay platform from Perkin Elmer (Waltham, Mass.). eIF4E phosphorylated on Ser209 is recognized by two antibodies, the first which is fused to a streptavidin coated donor bead binds to an epitope away from Ser209, the second which is fused to a protein A conjugated acceptor bead binds to phosphorylated Ser209. The phosphorylation of eIF4E on Ser209 brings the two antibodies into close proximity and when excited by a laser a singlet oxygen is released by the donor bead which excites the acceptor bead resulting in the emission of light. This enables the monitoring of eIF4E Ser209 phosphorylation and its inhibition in a cellular context.
Hela cells were seeded into microtitre plates (30,000 cells per well) in 100 μl of culture medium and incubated at 37° C. for 24 hours. The media was then removed by aspiration and the cells resuspended in 50 μl of serum free medium containing the test compound and incubated at 37° C. for 2 hours. The culture medium was again removed by aspiration and the cells resuspended in lysis buffer (provided in Perkin Elmer SureFire® Assay Kit). After agitation at 350 rpm for 20 minutes at 22° C., 4 μl was transferred to a 384 well OptiPlate™ (Perkin Elmer, Waltham, Mass.). To each well was added 5 μl of acceptor mix; the plate was sealed and agitated gently at 22° C. for 2 hours. Then, in subdued light, 2 μl of donor mix was added to each well, the plate was sealed, wrapped in aluminum foil and agitated gently at 22° C. for 2 hours. Emission was measured using the EnVision® plate reader (Perkin Elmer, Waltham, Mass.).
Inhibition constants (IC50) were determined by plotting AlphaScreen signal versus log compound concentration and fitting with a non-linear regression algorithm using GraphPad Prism (GraphPad Software Inc.).

| SMILES | IC50 |
| --- | --- |
| O=C1CCN(C(=O)c2ccc(-c3cn4c(-c5ccc(Cl)cc5)cnc4cn3)cc2)CC1 [Example 43, 1-(4-(3-(4-chlorophenyl)imidazo[1,2-a]pyrazin-6-yl)benzoyl)piperidin-4-one] | < 1 µM |

Same assay, conditions: Homo sapiens; eIF4E Ser209 phosphorylation, Hela cells, 2 hours; read-out: IC50 Hela

| SMILES | IC50 |
| --- | --- |
| CC1(C)CCN(C(=O)c2ccc(-c3cn4c(-c5ccc(C(N)=O)cc5)cnc4cn3)cc2)CC1 [Example 3, 4-(6-(4-(4,4-dimethylpiperidine-1-carbonyl)phenyl)imidazo[1,2-a]pyrazin-3-yl)benzamide] | < 1 µM |
| NC(=O)c1ccc(-c2cnc3cnc(-c4ccc(C(=O)N5CCC(N)CC5)cc4)cn23)cc1 [Example 4, 4-(6-(4-(4-aminopiperidine-1-carbonyl)phenyl)imidazo[1,2-a]pyrazin-3-yl) benzamide hydrochloride] | < 1 µM |
| CC(C)(C)N1CCN(C(=O)c2ccc(-c3cn4c(-c5ccc(C(N)=O)cc5)cnc4cn3)cc2)CC1 [Example 5, 4-(6-(4-(4-tert-butylpiperazine-1-carbonyl)phenyl)imidazo [1,2-a]pyrazin-3-yl)benzamide] | < 1 µM |
| N#Cc1ccc(-c2cnc3cnc(-c4ccc(C(=O)N5CCOCC5)cc4)cn23)cc1 [Example 7, 4-(6-(4-(morpholine-4-carbonyl)phenyl)imidazo[1,2-a]pyrazin-3-yl)benzonitrile] | < 1 µM |
| CNC1CCN(C(=O)c2ccc(-c3cn4c(-c5ccc(C#N)cc5)cnc4cn3)cc2)CC1 [Example 9, 4-(6-(4-(4-(methylamino)piperidine-1-carbonyl)phenyl)imidazo[1,2-a]pyrazin-3-yl)benzonitrile] | < 1 µM |
| N#Cc1ccc(-c2cnc3cnc(-c4ccc(C(=O)N5CCN(C6CC6)CC5)cc4)cn23)cc1 [Example 14, 4-(6-(4-(4-cyclopropylpiperazine-1-carbonyl)phenyl)imidazo[1,2-a]pyrazin-3-yl)benzonitrile] | < 1 µM |
| N#Cc1ccc(-c2cnc3cnc(-c4ccc(C(=O)N5CCC(O)CC5)cc4)cn23)cc1 [Example 15, 4-(6-(4-(4-hydroxypiperidine-1-carbonyl)phenyl)imidazo [1,2-a]pyrazin-3-yl)benzonitrile] | < 1 µM |
| CN1CCCN(C(=O)c2ccc(-c3cn4c(-c5ccc(C#N)cc5)cnc4cn3)cc2)CC1 [Example 17, 4-(6-(4-(4-methyl-1,4-diazepane-1-carbonyl)phenyl)imidazo [1,2-a]pyrazin-3-yl)benzonitrile] | < 1 µM |
| CN(C)C1CCN(C(=O)c2ccc(-c3cn4c(-c5ccc(C#N)cc5)cnc4cn3)cc2)CC1 [Example 21, 4-(6-(4-(4-(dimethylamino)piperidine-1-carbonyl)phenyl)imidazo [1,2-a]pyrazin-3-yl)benzonitrile] | < 1 µM |
| CC1(N)CCN(C(=O)c2ccc(-c3cn4c(-c5ccc(C#N)cc5)cnc4cn3)cc2)CC1 [Example 23, 4-(6-(4-(4-amino-4-methylpiperidine-1-carbonyl)phenyl)imidazo[1,2-a]pyrazin-3-yl)benzonitrile hydrochloride salt] | < 1 µM |
| N#Cc1ccc(-c2cnc3cnc(-c4ccc(C(=O)N5CCC6(CC5)COC6)cc4)cn23)cc1 [Example 24, 4-(6-(4-(2-oxa-7-azaspiro[3.5]nonane-7-carbonyl)phenyl)imidazo[1,2-a]pyrazin-3-yl)benzonitrile] | < 1 µM |
| CC(C)(C)N1CCN(C(=O)c2ccc(-c3cn4c(-c5ccc(C#N)cc5)cnc4cn3)cc2)CC1 [Example 26, 4-(6-(4-(4-tert-butylpiperazine-1-carbonyl)phenyl)imidazo[1,2-a]pyrazin-3-yl)benzonitrile] | < 1 µM |
| Cc1cc(-c2cn3c(-c4ccc(C#N)cc4)cnc3cn2)ccc1C(=O)N1CCC(C)(N)CC1 [Example 28, 4-(6-(4-(4-amino-4-methylpiperidine-1-carbonyl)-3-methylphenyl)imidazo [1,2-a]pyrazin-3-yl)benzonitrile] | < 1 µM |
| N#Cc1ccc(-c2cnc3cnc(-c4ccc(C(=O)N5CCC(N)CC5)c(F)c4)cn23)cc1 [Example 29, 4-(6-(4-(4-aminopiperidine-1-carbonyl)-3-fluorophenyl)imidazo[1,2-a]pyrazin-3-yl)benzonitrile] | < 1 µM |
| CC1(N)CCN(C(=O)c2ccc(-c3cn4c(-c5ccc(C#N)cc5)cnc4cn3)cc2F)CC1 [Example 30, 4-(6-(4-(4-amino-4-methylpiperidine-1-carbonyl)-3-fluorophenyl)imidazo[1,2-a]pyrazin-3-yl)benzonitrile] | < 1 µM |
| N#Cc1ccc(-c2cnc3cnc(-c4ccc(C(=O)N5CCC(N)CC5)c(Cl)c4)cn23)cc1 [Example 31, 4-(6-(4-(4-aminopiperidine-1-carbonyl)-3-chlorophenyl)imidazo[1,2-a]pyrazin-3-yl)benzonitrile] | < 1 µM |

| SMILES | IC50 |
| --- | --- |
| CC1(N)CCN(C(=O)c2ccc(-c3cn4c(-c5ccc(C#N)cc5)cnc4cn3)cc2Cl)CC1 [Example 32, 4-(6-(4-(4-amino-4-methylpiperidine-1-carbonyl)-3-chlorophenyl)imidazo[1,2-a]pyrazin-3-yl)benzonitrile] | < 1 µM |
| CN1CCN(C(=O)c2ccc(-c3cn4c(-c5ccc(C#N)cc5)cnc4cn3)c(O)c2)CC1 [Example 38, 4-(6-(2-hydroxy-4-(4-methylpiperazine-1-carbonyl)phenyl)imidazo [1,2-a]pyrazin-3-yl)benzonitrile] | < 1 µM |
| COc1cc(-c2cn3c(-c4ccc(C#N)cc4)cnc3cn2)ccc1C(=O)N1CCN(C)CC1 [Example 39, 4-(6-(3-methoxy-4-(4-methylpiperazine-1-carbonyl)phenyl)imidazo[1,2-a]pyrazin-3-yl)benzonitrile] | < 1 µM |
| CN1CCN(C(=O)c2ccc(-c3cn4c(-c5ccc(Cl)cc5)cnc4cn3)cc2)CC1 [Example 41, (4-(3-(4-chlorophenyl)imidazo [1,2-a]pyrazin-6-yl)phenyl)(4-methylpiperazin-1-yl)methanone] | < 1 µM |
| NC(=O)c1ccc(-c2cn3c(-c4ccc(Cl)cc4)cnc3cn2)cc1 [Example 42, 4-(3-(4-chlorophenyl)imidazo[1,2-a]pyrazin-6-yl)benzamide] | < 1 µM |
| CCN1CCN(C(=O)c2ccc(-c3cn4c(-c5ccc(Cl)cc5)cnc4cn3)cc2)CC1 [Example 45, (4-(3-(4-chlorophenyl)imidazo [1,2-a]pyrazin-6-yl)phenyl)(4-ethylpiperazin-1-yl)methanone] | < 1 µM |
| O=C(c1ccc(-c2cn3c(-c4ccc(Cl)cc4)cnc3cn2)cc1)N1CCNCC1 [Example 46, (4-(3-(4-chlorophenyl)imidazo[1,2-a]pyrazin-6-yl)phenyl)(piperazin-1-yl)methanone 2,2,2-trifluoroacetate salt] | < 1 µM |
| O=C(c1ccc(-c2cn3c(-c4ccc(Cl)cc4)cnc3cn2)cc1)N1CCC(NC(=O)C(F)(F)F)CC1 [Example 48, N-(1-(4-(3-(4-chlorophenyl)imidazo [1,2-a]pyrazin-6-yl)benzoyl)piperidin-4-yl)-2,2,2-trifluoroacetamide] | < 1 µM |
| N#Cc1ccc(-c2cnc3ccc(-c4ccc(C(=O)N5CCC(O)CC5)cc4)nn23)cc1 [Example 55, 4-(6-(4-(4-hydroxypiperidine-1-carbonyl)phenyl)imidazo [1,2-b]pyridazin-3-yl)benzonitrile] | < 1 µM |
| N#Cc1ccc(-c2cnc3ccc(-c4ccc(C(=O)N5CCC(N)CC5)cc4)nn23)cc1 [Example 56, 4-(6-(4-(4-aminopiperidine-1-carbonyl)phenyl)imidazo[1,2-b]pyridazin-3-yl)benzonitrile] | < 1 µM |
| CC(=O)NC1CCN(C(=O)c2ccc(-c3ccc4ncc(-c5ccc(C#N)cc5)n4n3)cc2)CC1 [Example 57, N-(1-(4-(3-(4-cyanophenyl)imidazo[1,2-b]pyridazin-6-yl)benzoyl)piperidin-4-yl)acetamide] | < 1 µM |
| CC1(N)CCN(C(=O)c2ccc(-c3ccc4ncc(-c5ccc(C#N)cc5)n4n3)cc2)CC1 [Example 58, 4-(6-(4-(4-amino-4-methylpiperidine-1-carbonyl)phenyl)imidazo[1,2-b]pyridazin-3-yl)benzonitrile] | < 1 µM |
| CC(C)N1CCN(C(=O)c2ccc(-c3ccc4ncc(-c5ccc(C#N)cc5)n4n3)cc2)CC1 [Example 59, 4-(6-(4-(4-isopropylpiperazine-1-carbonyl)phenyl)imidazo [1,2-b]pyridazin-3-yl)benzonitrile] | < 1 µM |
| CNC1CCN(C(=O)c2ccc(-c3ccc4ncc(-c5ccc(C#N)cc5)n4n3)cc2)CC1 [Example 60, 4-(6-(4-(4-(methylamino)piperidine-1-carbonyl)phenyl)imidazo[1,2-b]pyridazin-3-yl)benzonitrile] | < 1 µM |
| CN(C)C1CCN(C(=O)c2ccc(-c3ccc4ncc(-c5ccc(C#N)cc5)n4n3)cc2)CC1 [Example 63] | < 1 µM |
| N#Cc1ccc(-c2cnc3ccc(-c4ccc(C(=O)N5CCCOCC5)cc4)nn23)cc1 [Example 64, 4-(6-(4-(1,4-oxazepane-4-carbonyl)phenyl)imidazo[1,2-b]pyridazin-3-yl)benzonitrile] | < 1 µM |
